Data published in article PMC5872116, “Screening of E. coli β-clamp Inhibitors Revealed that Few Inhibit Helicobacter pylori More Effectively: Structural and Functional Characterization” (Antibiotics, 2018).

Assays:
Hpβ-clamp [1] = target: T1, Hpβ-clamp (Helicobacter pylori, UniProt O25242); test: SPR surface competition with HpDNA ligase, immobilised Hpβ-clamp (qualitative); type: binding; conditions: competitive with HpDNA ligase; HBS-EP pH 7.4, 2% DMSO
T1 construct: gene dnaN; recombinant, expressed in E. coli BL21, Ni-NTA and gel filtration purified (His-tag implied); homodimer
T1 sequence (O25242 1-374): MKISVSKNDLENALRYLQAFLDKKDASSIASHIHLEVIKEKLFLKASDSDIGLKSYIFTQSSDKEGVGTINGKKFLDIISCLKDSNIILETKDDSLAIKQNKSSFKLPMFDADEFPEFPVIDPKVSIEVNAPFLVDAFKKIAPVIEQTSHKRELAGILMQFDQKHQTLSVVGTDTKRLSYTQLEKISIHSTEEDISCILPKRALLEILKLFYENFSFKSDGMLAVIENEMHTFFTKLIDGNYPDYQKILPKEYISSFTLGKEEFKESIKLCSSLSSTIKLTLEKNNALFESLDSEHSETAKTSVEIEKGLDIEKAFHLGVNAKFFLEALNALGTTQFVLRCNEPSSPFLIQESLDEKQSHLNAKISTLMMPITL

Hpβ-clamp [2] = target: T1, Hpβ-clamp; test: co-crystal structure ([…] Å); also SPR surface competition with HpDNA ligase; type: binding; conditions: subsite I of protein-protein interaction site; competitive with HpDNA ligase

Structure (SMILES) | SPR surface competition with HpDNA ligase, immobilised Hpβ-clamp (qualitative) (Hpβ-clamp [1]) | co-crystal structure (1.97 Å); also SPR surface competition with HpDNA ligase (Hpβ-clamp [2])
O=[N+]([O-])c1ccc2cn[nH]c2c1 [C2, 6-nitroindazole] | All five shortlisted molecules showed competitive binding to β-clamp. | 
O=[N+]([O-])c1ccc2[nH]ccc2c1 [C4, 5-nitroindole] | All five shortlisted molecules showed competitive binding to β-clamp. | 
C[C@H](C(=O)O)c1ccc2c(c1)[nH]c1ccc(Cl)cc12 [C3, (S)-carprofen] |  | 5FXT (Hpβ-clamp complex with carprofen, C3)
